In patent US20230405005A1, “TREATMENT OF GAIT DYSFUNCTION IN NEURODEGENERATIVE DISEASE” (EIP Pharma, Inc., priority 2020, published 2023):

How the values were obtained:
hippocampal neurons = conditions: hippocampal cell culture; cited from earlier work
CKIε = CKIε (Homo sapiens, UniProt P49674); conditions: cited from earlier work
CKIδ = CKIδ (Homo sapiens, UniProt P48730); conditions: cited from earlier work
human subjects [1] = test: EEG beta functional connectivity, corrected Amplitude Envelope Correlation (AECc); assay type: in vivo
Experimental: “40 mg” refers to combined neflamapimod patients, including 40 mg BID and 40 mg TID.
These regions, in particular the frontal cortex, receive cholinergic input, including projections from the nucleus basalis of Meynert. Dysfunction of the cholinergic system leads to impaired cortical functional connectivity, which is disruptive to the performance of complex motor functions such as gait. The ability of neflamapimod to improve functional connectivity, as measured by EEG in the experiments described herein, provides further support for the efficacy of neflamapimod to alleviate gait dysfunction.
Functional connectivity analysis, specifically corrected Amplitude Envelope Correlation (AECc), measures interregional communication or so-called ‘functional connectivity’ between different brain regions. In the functional connectivity analysis, a positive neflamapimod treatment effect on AECc in the beta band (13-30 Hz) was identified. Mean AECc beta was increased with neflamapimod TID versus all placebo (p=0.033) and versus placebo TID (p=0.01).

human subjects [2] = test: Timed Up and Go (TUG) test, 16-week placebo-controlled clinical study; assay type: in vivo; conditions: 8 and 16 weeks
Experimental: FIG. 1A illustrates the Timed Up and Go (TUG) test, wherein the time it takes a subject to stand up from a chair, walk three meters, turn around and return to the chair is measured.
(§1) A double-blind placebo-controlled, 16-week, treatment with neflamapimod was conducted in parallel groups at 22 centers in the US and 2 centers in the Netherlands.
(§2) Inclusion criteria included Mild-to-moderate (MMSE 15-28) probable Dementia with Lewy Bodies by consensus criteria (McKeith et al, Neurology, 2017; 89:88-100), a positive reading of DaTscan™, and have to have been currently receiving cholinesterase inhibitor therapy (>3 months and stable dose >6 weeks). If DaTscan™ was negative, subjects could also be enrolled with history of polysomnography-confirmed REM sleep disorder (6 study participants so enrolled). The study was randomized 1:1 to 40 mg neflamapimod or matching-placebo capsules. Dosing regimen was based on weight: subjects weighing <80 kg received capsules twice-daily (BID) and those weighing ≥80 kg received capsules three-times-a-day (TID).
Secondary clinical endpoints included the following. (a) International Shopping List Test (ISLT); (b) Timed Up and Go Test (TUG), Ten item Neuropsychiatric Inventory (NPI-10); and (c) Clinical Dementia Rating scale Sum-of-Boxes (CDR-SB). […]

human subjects [3] = test: Personal Care Domain of Clinical Dementia Rating Scale Sum of Boxes (CDR-SB); assay type: in vivo; conditions: neflamapimod vs placebo over 16 weeks; p=0.02 (MMRM), FIG. 4
Experimental: as §1, §2
Secondary clinical endpoints included the following. (a) International Shopping List Test (ISLT); (b) Timed Up and Go Test (TUG), Ten item Neuropsychiatric Inventory (NPI-10); and (c) Clinical Dementia Rating scale Sum-of-Boxes (CDR-SB). The TUG test is useful to measure risk of fall in patients with or at risk of suffering from Parkinson's disease (see e.g., Arch Phys Med Rehabil. 2013 July; 94(7): 1300-1305).

CKIδ, sequence (P48730 whole entry, species assumed): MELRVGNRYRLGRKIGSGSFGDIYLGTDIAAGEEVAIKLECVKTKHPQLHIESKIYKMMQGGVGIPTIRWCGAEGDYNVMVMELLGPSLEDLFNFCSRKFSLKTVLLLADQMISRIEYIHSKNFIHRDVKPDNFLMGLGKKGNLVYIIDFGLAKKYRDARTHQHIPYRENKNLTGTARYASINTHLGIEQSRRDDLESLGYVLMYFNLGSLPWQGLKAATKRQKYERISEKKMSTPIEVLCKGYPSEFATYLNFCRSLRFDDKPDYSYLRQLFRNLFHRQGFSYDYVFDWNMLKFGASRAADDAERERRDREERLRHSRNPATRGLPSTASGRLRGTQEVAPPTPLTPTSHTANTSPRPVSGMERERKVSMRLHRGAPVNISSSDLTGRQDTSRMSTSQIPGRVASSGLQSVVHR
CKIε, sequence (P49674 whole entry, species assumed): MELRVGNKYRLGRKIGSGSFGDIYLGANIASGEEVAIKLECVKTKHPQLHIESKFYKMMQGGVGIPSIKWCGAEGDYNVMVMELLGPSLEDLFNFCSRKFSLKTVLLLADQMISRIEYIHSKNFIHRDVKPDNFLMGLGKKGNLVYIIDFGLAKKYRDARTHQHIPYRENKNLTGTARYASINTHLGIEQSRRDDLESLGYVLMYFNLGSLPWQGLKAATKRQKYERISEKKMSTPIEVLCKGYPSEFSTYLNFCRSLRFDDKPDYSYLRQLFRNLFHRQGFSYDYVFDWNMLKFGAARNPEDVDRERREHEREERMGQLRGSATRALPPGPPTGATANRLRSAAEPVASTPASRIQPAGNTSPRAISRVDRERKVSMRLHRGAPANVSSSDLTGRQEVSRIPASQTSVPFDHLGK

Row | SMILES | Effect against amyloid β-derived diffusible ligand (ADDL) induced synaptotoxicity (hippocampal neurons) | Inhibition of casein kinase isoform CKIε (CKIε) | Inhibition of casein kinase isoform CKIδ (CKIδ) | AECc in each of the other bands (human subjects [1]; EEG bands other than beta) | Mean AECc beta (13-30 Hz) functional connectivity (human subjects [1]; neflamapimod TID versus all placebo (p=0.033) and versus placebo TID (p=0.01)) | AECc beta by brain region (human subjects [1]; placebo TID versus neflamapimod TID, frontal p=0.009, temporal p=0.036, parietal p=0.036) | TUG test outcome (human subjects [2]; all neflamapimod (40 mg BID and 40 mg TID) vs all placebo, p=0.044 (MMRM), FIG. 2) | TUG test outcome (human subjects [2]; neflamapimod 40 mg TID vs placebo TID, p=0.024 (MMRM), FIG. 3) | Personal care domain of the CDR sum of boxes (human subjects [3])
1 | COc1nccc(-c2c(-c3ccc(F)cc3)ncn2C2CCC(O)CC2)n1 (stereo not shown) [SB239063] | ineffective | inhibit | inhibit | – | – | – | – | – | –
2 | O=c1ncn2nc(Sc3ccc(F)cc3F)ccc2c1-c1c(Cl)cccc1Cl [neflamapimod, 5-(2,6-dichlorophenyl)-2-(2,4-difluorophenylthio)-6H-pyrimido[1,6-b]pyridazin-6-one] | positive effects | – | – | stable or slightly improved with no treatment group differences | increased | most prominent in the frontal region | significantly improve outcome | significantly improve outcome | significant positive outcome
